Measurements reported in PMC3664642, “A Peptide against Soluble Guanylyl Cyclase α1: A New Approach to Treating Prostate Cancer” (PLoS ONE, 2013).
Where no end group is shown, it is not given here.

Tests used:
[1] = tested on: LNCaP cells; experiment: AKT over-expression (adenovirus) rescue of Peptide A-8R-treated cells; format: cell-based; conditions: 10- 50 µM Peptide A-8R; 10% serum; 0–6 days; Fig. S4D
[2] = tested on: Caspase 3/7 activity in LNCaP cells; experiment: Caspase 3/7 assay, LNCaP cells; format: cell-based; conditions: Fig. 5A; for increase in Caspase 3/7 activity: 10 µM, averages of three independent experiments, relative to first condition
Experimental: For proliferation, cells were grown in medium containing 2% FBS extracted with dextran-coated charcoal (DCC). 48 hours later, ethanol or 1 nM R1881 was added to the cells followed by peptide treatment. The MTT assay (Sigma) was used as before to determine cell number. For apoptosis, 5000 cells were seeded in 96-well plates and treated with Vehicle (DMSO), Peptide A-8R (25 µM), Etoposide (50 µM) (Sigma) at different time points. The Caspase (3/7) activity was measured using Apo-ONE Homogeneous Caspase-3/7 assay kit (Promega). PARP cleavage was also used to measure apoptosis, and is described below.
Figure 5 Peptide A-8R induces apoptosis of prostate cancer cells. (A) LNCaP, (B) PC-3, or (C) Cos cells were treated with Vehicle, Peptide A-8R (10 µM), or Etoposide (20 µM) for 0–24 hrs and subjected to a Caspase assay to measure apoptosis. Bar graphs represent averages of three independent experiments plus standard deviations. All activities are relative to the first condition, and this activity was set to 1. Asterisks indicate statistical significance (P<0.005). (D) LNCaP cells were treated with Vehicle, Peptide C-8R, Peptide A-8R, or Etoposide (each drug at 50 µM) for 8 hrs and monitored for apoptosis by measuring PARP cleavage using Western blotting. Note that β-actin was used to control for protein loading.
Supplementary file pone.0064189.s005.tif: Figure S5 ROS generation is not induced by Peptide A-8R in PC-3 cells and Peptide C-8R in LNCaP cells. (A) PC-3 cells were treated with Vehicle or different concentrations of Peptide A-8R or Peptide C-8R, as shown, or (B) LNCaP cells were treated with Vehicle or different concentrations of Peptide A-8R or Peptide C-8R, or H2O2 and monitored for ROS generation after 0–30 (A) or 30 (B) min. (C) LNCaP cells were treated with Vehicle, Peptide C-8R (10 µM), Peptide A-8R (10 µM), or Etoposide (100 µM) for 0–8 hrs and subjected to a Caspase assay to measure apoptosis. Bar graphs represent averages of three independent experiments plus standard deviations. (C) All activities are relative to the first condition, and this activity was set to either 1. Asterisks indicate statistical significance (P<0.006) of all values compared to Vehicle (B) or to 0 hour (C). (TIF) Click here for additional data file.

## Ac-TFCKAFPFHIIRRRRRRRR [Peptide A-8R]
[1]
  rescue by adenovirus-expressed AKT: unable to rescue
[2]; 1 hour
  increase in Caspase 3/7 activity: 2 fold
[2]; 8 hrs
  increase in Caspase 3/7 activity: ~4 fold
[2]
  speed of Caspase 3/7 induction relative to Etoposide: much faster than the well-studied apoptosis-inducing drug Etoposide
[2]; Peptide 10 µM, Etoposide 20 µM, 24 hrs
  Caspase 3/7 activity: diminished to Vehicle levels
